Here are results for two molecules from patent publication US8048927B2 (Besins Healthcare Luxembourg, priority 2004, dated 2011).

The subject of data set [1] is rat liver. To be noted: cited from earlier work.
Data set [2] addresses T1, estrone sulphatase (Homo sapiens, UniProt P08842).
T1 construct: estrone sulphatase activity in mammary cancer cell lines; endogenous in cells
T1 sequence (P08842 22-583): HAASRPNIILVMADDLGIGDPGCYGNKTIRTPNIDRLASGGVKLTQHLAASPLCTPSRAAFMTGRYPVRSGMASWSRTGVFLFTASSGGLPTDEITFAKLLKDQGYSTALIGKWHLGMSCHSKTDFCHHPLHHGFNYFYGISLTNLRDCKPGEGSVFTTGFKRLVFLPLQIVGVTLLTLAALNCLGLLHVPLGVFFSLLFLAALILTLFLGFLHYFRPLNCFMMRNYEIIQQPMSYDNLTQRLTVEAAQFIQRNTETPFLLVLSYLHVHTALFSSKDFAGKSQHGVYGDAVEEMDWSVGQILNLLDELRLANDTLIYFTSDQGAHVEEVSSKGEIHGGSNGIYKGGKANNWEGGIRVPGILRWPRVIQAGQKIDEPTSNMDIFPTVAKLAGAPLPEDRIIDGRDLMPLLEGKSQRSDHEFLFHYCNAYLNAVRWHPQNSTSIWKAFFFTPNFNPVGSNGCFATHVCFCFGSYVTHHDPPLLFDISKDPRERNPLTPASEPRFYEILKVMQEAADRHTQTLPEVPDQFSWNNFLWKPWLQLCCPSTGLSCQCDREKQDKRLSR
Particulars: mammary cancer cell lines; cited from earlier work.

For data set [3], the system named is p53(−) normal human mammary epithelial cells. Particulars: cited from earlier work.
The subject of data set [4] is benign breast disease. Particulars: cited from earlier work.
The conditions of data set [5]: Group 1: PO tamoxifen 20 mg/day (10 mg b.i.d.), 3-4 weeks; cited from earlier work.
For data set [6] the following is noted: Group 2 (0.5 mg/day gel): seventh day of treatment; Group 1 (oral tamoxifen): fifth day; cited from earlier work.
Data set [7] can be described thus: percutaneous [^3H]-4-hydroxy tamoxifen delivery in breast cancer patients (Example 1).
Procedure: The patients received [^3H]-labeled drug applied directly on the affected breasts at specified intervals ranging from 12 hours to 7 days before surgery to excise diseased tissue. Breast tissue from three regions: the tumor, tissue immediately surrounding the tumor, and normal tissue, was excised and immediately frozen in liquid nitrogen. Additionally, plasma and urine samples were obtained at scheduled intervals and frozen until analysis.

Turning to `CC/C(=C(\c1ccccc1)c1ccc(OCCN(C)C)cc1)c1ccccc1` [tamoxifen], in data set [1], the rat liver carcinogenicity entry was “potent rat liver carcinogen”. Moreover, in data set [2], the “inhibitory effect on estrone sulphatase activity” value is “little or no effect”. Also, the initiation of apoptosis entry in data set [3] was “initiates apoptosis”. For the same molecule, in data set [4] (in vivo), the “decrease of risk, adenosis” value is listed as 41%; the “decrease of risk, cyst” value was 34%; the “decrease of risk, duct ectasia” value is 28%; the “decrease of risk, fibrocystic disease” value is listed as 33%. Besides, in data set [4] (in vivo), the “decrease of risk, hyperplasia” value is 40%; the “decrease of risk, metaplasia” value was 49%; the “reduction of the risk of developing benign breast disease, overall” value was 28%. In data set [4] (women under 50), the “reduction of the need for breast biopsies” value is reported as 41%. Further, in data set [5], the “Normal Tissue concentration of 4-hydroxy tamoxifen, Mean ± SD” value is given as 10215 ± 2151 pg/g; the “Plasma concentration of 4-hydroxy tamoxifen, Day Pre-Surgery, Mean ± SD” value was 2.326 ± 0.585 ng/mL; the “Plasma concentration of 4-hydroxy tamoxifen, Day of Surgery, Mean ± SD” value was 2.317 ± 1.098 ng/mL; the “Tumor concentration of 4-hydroxy tamoxifen, Mean ± SD” value is reported as 12453 ± 3751 pg/g. For the same molecule, the “side effects reported by one person of the group” value in data set [6] is “hot flashes and mild vaginitis”. Besides, in data set [7] (percutaneous application to the breast), the “retention in the breast” value is “shorter and far weaker”.

Turning to `CC/C(=C(\c1ccccc1)c1ccc(OCCN(C)C)cc1)c1ccccc1` [[^3H]-tamoxifen], in data set [7] (percutaneous application), the “time of plateau of radioactivity in blood” value was 2 days.
